# Laboratory results: PMC4770772 (Oncotarget, 2015)
# Positions count from the first letter of the chain named. Where two headings read alike, the source gives them in different places.
# Tests used:
# ABCG2 [1] = molecular target: T1, ABCG2 (Homo sapiens, UniProt Q9UNQ0, R482G); assay: [3H]-mitoxantrone accumulation in HEK293/R482G cells at […]; assay type: cell-based
# T1 construct: full-length ABCG2 in HEK293 cells
# T1 sequence (Q9UNQ0 1-655 R482G): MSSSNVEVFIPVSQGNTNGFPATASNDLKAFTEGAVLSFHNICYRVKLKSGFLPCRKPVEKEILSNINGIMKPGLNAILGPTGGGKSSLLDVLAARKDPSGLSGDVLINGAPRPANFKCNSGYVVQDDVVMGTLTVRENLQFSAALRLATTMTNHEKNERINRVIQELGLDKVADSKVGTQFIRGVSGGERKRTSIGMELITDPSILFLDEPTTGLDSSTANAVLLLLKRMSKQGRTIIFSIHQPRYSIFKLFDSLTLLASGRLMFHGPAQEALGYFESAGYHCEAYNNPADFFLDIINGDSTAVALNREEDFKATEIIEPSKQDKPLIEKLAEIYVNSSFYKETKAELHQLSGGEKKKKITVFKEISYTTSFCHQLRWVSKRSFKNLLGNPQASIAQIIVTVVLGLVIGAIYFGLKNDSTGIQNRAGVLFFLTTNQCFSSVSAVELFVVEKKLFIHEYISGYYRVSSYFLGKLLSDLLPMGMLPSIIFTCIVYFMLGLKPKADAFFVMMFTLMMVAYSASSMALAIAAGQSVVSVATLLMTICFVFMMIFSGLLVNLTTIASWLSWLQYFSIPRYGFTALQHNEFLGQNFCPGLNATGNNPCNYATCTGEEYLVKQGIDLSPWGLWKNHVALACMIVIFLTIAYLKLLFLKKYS
# ABCG2 [2] = molecular target: T2, ABCG2 (Homo sapiens, UniProt Q9UNQ0, R482T); assay: [3H]-mitoxantrone accumulation in HEK293/R482T cells at […]; assay type: cell-based
# T2 construct: full-length ABCG2 in HEK293 cells
# T2 sequence (Q9UNQ0 1-655 R482T): T1 sequence (Q9UNQ0 1-655 R482G) with G482T
# ABCG2 [3] = molecular target: T3, ABCG2 (Homo sapiens, UniProt Q9UNQ0); assay: vanadate-sensitive ATPase stimulation in membrane vesicles; also [3H]-mitoxantrone accumulation/efflux inhibition in HEK293/R482 cells; assay type: biochemical
# T3 construct: membrane vesicles of High Five insect cells overexpressing ABCG2
# T3 sequence (Q9UNQ0 1-655): T1 sequence (Q9UNQ0 1-655 R482G) with G482R
# ABCG2 [4] = molecular target: T3, ABCG2; assay: vanadate-sensitive ATPase stimulation in membrane vesicles; [3H]-MX efflux from ABCG2-transfected cells; assay type: biochemical
# ABCG2 [5] = molecular target: T3, ABCG2; assay type: biochemical; conditions: membrane vesicles
structure (smiles),measurement,setting,value
COc1cc(NC(=O)c2ccc(-c3ccc(Cl)cc3)o2)cc(OC)c1 [A-803467],[3H]-mitoxantrone accumulation in HEK293/R482G cells at 7.5 μM,ABCG2 [1],"significantly increased intracellular accumulation of [^3H]-MX in ABCG2-expressing cells HEK293/R482, HEK293/R482G and HEK293/R482T cells"
same,[3H]-mitoxantrone accumulation in HEK293/R482T cells at 7.5 μM,ABCG2 [2],"significantly increased intracellular accumulation of [^3H]-MX in ABCG2-expressing cells HEK293/R482, HEK293/R482G and HEK293/R482T cells"
same,EC50,ABCG2 [3],718 nM
O=C1c2c(O)ccc(O)c2C(=O)c2c(NCCNCCO)ccc(NCCNCCO)c21 [mitoxantrone],EC50,ABCG2 [4],2200 nM
CC[C@@]1(O)C(=O)OCc2c1cc1n(c2=O)Cc2cc3c(CN(C)C)c(O)ccc3nc2-1 [topotecan],EC50,ABCG2 [5],2600 nM
